Measurements: US9833497B2, “Human originated EGF domain proteins and use of the same” (CHENGDU SOURCEBIO LIMITED-LIABILITY COMPANY, priority 2013, dated 2017)

What was measured:
Assay type in all cases: cell-based
Enterobacter cloacae = assay: MIC against Gram-negative bacteria: Enterobacter cloacae
Outline: (§1)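 Bacteria grown in LB at 37° C to McFarland 0.5, resuspended and seeded at 5×10^5 CFU/mL in 96-well plates. Purified human EGF-domain proteins two-fold serially diluted, triplicate wells; cultured at 37° C, shaking 175 rpm. MIC = lowest protein concentration with no growth.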

Citrobacter diversus = assay: MIC against Gram-negative bacteria: Citrobacter diversus
Outline: as §1

Pseudomonas aeruginosa = assay: MIC against Gram-negative bacteria: Pseudomonas aeruginosa
Outline: as §1

Aeromonas hydrophila = assay: MIC against Gram-negative bacteria: Aeromonas hydrophila
Outline: as §1

Proteus vulgaris = assay: MIC against Gram-negative bacteria: Proteus vulgaris
Outline: as §1

Klebsiella pneumonia = assay: MIC against Gram-negative bacteria: Klebsiella pneumonia
Outline: as §1

Serratia marcescens = assay: MIC against Gram-negative bacteria: Serratia marcescens
Outline: as §1

Moraxella catarrhalis = assay: MIC against Gram-negative bacteria: Moraxella catarrhalis
Outline: as §1

E. coli BL21 = assay: MIC against Gram-negative bacteria: E. coli BL21
Outline: as §1

Proteus mirabilis = assay: MIC against Gram-negative bacteria: Proteus mirabilis
Outline: as §1

E. coli DH5α = assay: Antibacterial activity: MIC and growth curve against E. coli DH5α in 96-well plate; details: minimal inhibitory concentration against E. coli DH5α; 96-well plate, 5×10^5 CFU/mL, 37° C., judged after 8 h
Outline: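 MIC taken as lowest protein level with no bacterial growth, tracked by A600 every 30 min during 37 °C, 175 rpm culture. Two-fold protein series 50-12.5 μg/mL final, triplicate wells, against 5×10^5 CFU/mL of LB-washed mid-log cells.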

[1] = E. cloacae, 10 h cultivation at 37° C., 5×10^5 CFU/mL
[2] = C. diversus, 10 h cultivation at 37° C., 5×10^5 CFU/mL
[3] = P. aeruginosa, 10 h cultivation at 37° C., 5×10^5 CFU/mL
[4] = A. hydrophila, 10 h cultivation at 37° C., 5×10^5 CFU/mL
[5] = P. vulgaris, 10 h cultivation at 37° C., 5×10^5 CFU/mL
[6] = K. pneumonia, 10 h cultivation at 37° C., 5×10^5 CFU/mL
[7] = S. marcescens, 10 h cultivation at 37° C., 5×10^5 CFU/mL
[8] = M. catarrhalis, 10 h cultivation at 37° C., 5×10^5 CFU/mL
[9] = E. coli BL21, 10 h cultivation at 37° C., 5×10^5 CFU/mL
[10] = P. mirabilis, 10 h cultivation at 37° C., 5×10^5 CFU/mL
[11] = 96-well plate, 5×10^5 CFU/mL, 37° C., 10 h

| Substance | MIC (μg/mL) E. cloacae (Enterobacter cloacae; [1]) [µg/mL] | MIC (μg/mL) C. diversus (Citrobacter diversus; [2]) [µg/mL] | MIC (μg/mL) P. aeruginosa (Pseudomonas aeruginosa; [3]) [µg/mL] | MIC (μg/mL) A. hydrophila (Aeromonas hydrophila; [4]) [µg/mL] | MIC (μg/mL) P. vulgaris (Proteus vulgaris; [5]) [µg/mL] | MIC (μg/mL) K. pneumonia (Klebsiella pneumonia; [6]) [µg/mL] | MIC (μg/mL) S. marcescens (Serratia marcescens; [7]) [µg/mL] | MIC (μg/mL) M. catarrhalis (Moraxella catarrhalis; [8]) [µg/mL] | MIC (μg/mL) E. coli BL21 (E. coli BL21; [9]) [µg/mL] | MIC (μg/mL) P. mirabilis (Proteus mirabilis; [10]) [µg/mL] | MIC (E. coli DH5α) [µg/mL] | further results |
| --- | --- | --- | --- | --- | --- | --- | --- | --- | --- | --- | --- | --- |
| PRT795 (WGFGCNLTCQCLNGGACNTLDGTCTCAPGWRGEKCE; listed as Homo sapiens) | 12.5 | 50 | 50 | 25 | 25 | 50 | 50 | 25 | 25 | 25 | 50 | – |
| PRT1040 (AAHPCVRAPCAHGGSCRPRKEGYDCDCPLGFEGLHCQ; listed as Homo sapiens) | – | – | – | – | – | – | – | – | – | – | 12.5 | MIC (Enterobacter cloacae; E. cloacae, 10 h cultivation at 37° C.): 50 µg/mL; MIC (Citrobacter diversus; C. diversus, 10 h cultivation at 37° C.): 50 µg/mL; MIC (Pseudomonas aeruginosa; P. aeruginosa, 10 h cultivation at 37° C.): 50 µg/mL; MIC (Aeromonas hydrophila; A. hydrophila, 10 h cultivation at 37° C.): 12.5 µg/mL; MIC (Proteus vulgaris; P. vulgaris, 10 h cultivation at 37° C.): 25 µg/mL; MIC (Klebsiella pneumonia; K. pneumonia, 10 h cultivation at 37° C.): 25 µg/mL; MIC (Serratia marcescens; S. marcescens, 10 h cultivation at 37° C.): 50 µg/mL; MIC (Moraxella catarrhalis; M. catarrhalis, 10 h cultivation at 37° C.): 25 µg/mL; MIC (E. coli BL21; E. coli BL21, 10 h cultivation at 37° C.): 50 µg/mL; MIC (Proteus mirabilis; P. mirabilis, 10 h cultivation at 37° C.): 50 µg/mL |
| PRT780 (EYSSCSRHPCQNGGTCINGRTSFTCACRHPFTGDNCT; listed as Homo sapiens) | 12.5 | 25 | 12.5 | 50 | 50 | 50 | 12.5 | 12.5 | 50 | 25 | 12.5 | – |
| PRT645 (EINECTVNPDICGAGHCINLPVRYTCICYEGYRFSEQQ; listed as Homo sapiens) | – | – | – | – | – | – | – | – | – | – | 50 | MIC E. cloacae (Enterobacter cloacae; [11]): 50 µg/mL; MIC C. diversus (Citrobacter diversus; [11]): 12.5 µg/mL; MIC P. aeruginosa (Pseudomonas aeruginosa; [11]): 12.5 µg/mL; MIC A. hydrophila (Aeromonas hydrophila; [11]): 25 µg/mL; MIC P. vulgaris (Proteus vulgaris; [11]): 50 µg/mL; MIC K. pneumonia (Klebsiella pneumonia; [11]): 25 µg/mL; MIC S. marcescens (Serratia marcescens; [11]): 12.5 µg/mL; MIC M. catarrhalis (Moraxella catarrhalis; [11]): 50 µg/mL; MIC E. coli BL21 (E. coli BL21; [11]): 25 µg/mL; MIC P. mirabilis (Proteus mirabilis; [11]): 12.5 µg/mL |
| PRT30 (PCDCYPVGSTSRSCAPHSGQCPCRPGALGRQCNSCDSPF; listed as Homo sapiens) | – | – | – | – | – | – | – | – | – | – | 25 | MIC (μg/mL) E. cloacae (Enterobacter cloacae; Enterobacter cloacae, 96-well plate, 5×10^5 CFU/mL, 37° C., 10 h): 50 µg/mL; MIC (μg/mL) C. diversus (Citrobacter diversus; Citrobacter diversus, 96-well plate, 5×10^5 CFU/mL, 37° C., 10 h): 25 µg/mL; MIC (μg/mL) P. aeruginosa (Pseudomonas aeruginosa; Pseudomonas aeruginosa, 96-well plate, 5×10^5 CFU/mL, 37° C., 10 h): 12.5 µg/mL; MIC (μg/mL) A. hydrophila (Aeromonas hydrophila; Aeromonas hydrophila, 96-well plate, 5×10^5 CFU/mL, 37° C., 10 h): 12.5 µg/mL; MIC (μg/mL) P. vulgaris (Proteus vulgaris; Proteus vulgaris, 96-well plate, 5×10^5 CFU/mL, 37° C., 10 h): 25 µg/mL; MIC (μg/mL) K. pneumonia (Klebsiella pneumonia; Klebsiella pneumonia, 96-well plate, 5×10^5 CFU/mL, 37° C., 10 h): 25 µg/mL; MIC (μg/mL) S. marcescens (Serratia marcescens; Serratia marcescens, 96-well plate, 5×10^5 CFU/mL, 37° C., 10 h): 12.5 µg/mL; MIC (μg/mL) M. catarrhalis (Moraxella catarrhalis; Moraxella catarrhalis, 96-well plate, 5×10^5 CFU/mL, 37° C., 10 h): 50 µg/mL; MIC (μg/mL) E. coli BL21 (E. coli BL21; E. coli BL21, 96-well plate, 5×10^5 CFU/mL, 37° C., 10 h): 50 µg/mL; MIC (μg/mL) P. mirabilis (Proteus mirabilis; Proteus mirabilis, 96-well plate, 5×10^5 CFU/mL, 37° C., 10 h): 12.5 µg/mL |
| PRT793 (YGEACQQICSCQNGADCDSVTGKCTCAPGFKGIDCS; listed as Homo sapiens) | 25 | 25 | 50 | 50 | 50 | 12.5 | 12.5 | 12.5 | 12.5 | 25 | 25 | – |
| PRT478 (ATQYCSRAQCHGHGRCVRRNPSASTFLHLSTNSFRLVPGHAPGEPQLRPVGELSWADIDH; listed as Homo sapiens) | – | – | – | – | – | – | – | – | – | – | 50 | MIC against E. cloacae (Enterobacter cloacae; [11]): 50 µg/mL; MIC against C. diversus (Citrobacter diversus; [11]): 100 µg/mL; MIC against P. aeruginosa (Pseudomonas aeruginosa; [11]): 12.5 µg/mL; MIC against A. hydrophila (Aeromonas hydrophila; [11]): 25 µg/mL; MIC against P. vulgaris (Proteus vulgaris; [11]): 25 µg/mL; MIC against K. pneumonia (Klebsiella pneumonia; [11]): 25 µg/mL; MIC against S. marcescens (Serratia marcescens; [11]): 12.5 µg/mL; MIC against M. catarrhalis (Moraxella catarrhalis; [11]): 25 µg/mL; MIC against E. coli BL21 (E. coli BL21; [11]): 25 µg/mL; MIC against P. mirabilis (Proteus mirabilis; [11]): 50 µg/mL |
| PRT879 (TLKQCASAPCRNGGVCREGWNRFICDCIGTGFLGRVCE; listed as Homo sapiens) | 25 | 25 | 12.5 | 12.5 | 12.5 | 12.5 | 25 | 12.5 | 50 | 12.5 | 25 | – |
| PRT1403 (SVVECPRNCHGNGECVSGTCHCFPGFLGPDCS; listed as Homo sapiens) | – | – | – | – | – | – | – | – | – | – | 50 | MIC against E. cloacae (Enterobacter cloacae; Enterobacter cloacae, 5×10^5 CFU/mL, 10 h cultivation at 37° C.): 25 µg/mL; MIC against C. diversus (Citrobacter diversus; Citrobacter diversus, 5×10^5 CFU/mL, 10 h cultivation at 37° C.): 50 µg/mL; MIC against P. aeruginosa (Pseudomonas aeruginosa; Pseudomonas aeruginosa, 5×10^5 CFU/mL, 10 h cultivation at 37° C.): 50 µg/mL; MIC against A. hydrophila (Aeromonas hydrophila; Aeromonas hydrophila, 5×10^5 CFU/mL, 10 h cultivation at 37° C.): 25 µg/mL; MIC against P. vulgaris (Proteus vulgaris; Proteus vulgaris, 5×10^5 CFU/mL, 10 h cultivation at 37° C.): 12.5 µg/mL; MIC against K. pneumonia (Klebsiella pneumonia; Klebsiella pneumonia, 5×10^5 CFU/mL, 10 h cultivation at 37° C.): 12.5 µg/mL; MIC against S. marcescens (Serratia marcescens; Serratia marcescens, 5×10^5 CFU/mL, 10 h cultivation at 37° C.): 50 µg/mL; MIC against M. catarrhalis (Moraxella catarrhalis; Moraxella catarrhalis, 5×10^5 CFU/mL, 10 h cultivation at 37° C.): 12.5 µg/mL; MIC against E. coli BL21 (E. coli BL21; E. coli BL21, 5×10^5 CFU/mL, 10 h cultivation at 37° C.): 12.5 µg/mL; MIC against P. mirabilis (Proteus mirabilis; Proteus mirabilis, 5×10^5 CFU/mL, 10 h cultivation at 37° C.): 50 µg/mL |
| PRT806 (FGFQCSQHCDCHNGGQCSPTTGACECEPGYKGPRCQ; listed as Homo sapiens) | 12.5 | 12.5 | 12.5 | 12.5 | 25 | 12.5 | 25 | 25 | 25 | 12.5 | 12.5 | – |
